Read-outs that look alike come from different tables or passages of the source.
Tests used:
Assay type in all cases: cell-based
[1] = target: T1, protein kinases (human kinome) (Homo sapiens, UniProt O15197); details: for logFC: EPHB6 (O15197-1)
T1 sequence (O15197 32-1021): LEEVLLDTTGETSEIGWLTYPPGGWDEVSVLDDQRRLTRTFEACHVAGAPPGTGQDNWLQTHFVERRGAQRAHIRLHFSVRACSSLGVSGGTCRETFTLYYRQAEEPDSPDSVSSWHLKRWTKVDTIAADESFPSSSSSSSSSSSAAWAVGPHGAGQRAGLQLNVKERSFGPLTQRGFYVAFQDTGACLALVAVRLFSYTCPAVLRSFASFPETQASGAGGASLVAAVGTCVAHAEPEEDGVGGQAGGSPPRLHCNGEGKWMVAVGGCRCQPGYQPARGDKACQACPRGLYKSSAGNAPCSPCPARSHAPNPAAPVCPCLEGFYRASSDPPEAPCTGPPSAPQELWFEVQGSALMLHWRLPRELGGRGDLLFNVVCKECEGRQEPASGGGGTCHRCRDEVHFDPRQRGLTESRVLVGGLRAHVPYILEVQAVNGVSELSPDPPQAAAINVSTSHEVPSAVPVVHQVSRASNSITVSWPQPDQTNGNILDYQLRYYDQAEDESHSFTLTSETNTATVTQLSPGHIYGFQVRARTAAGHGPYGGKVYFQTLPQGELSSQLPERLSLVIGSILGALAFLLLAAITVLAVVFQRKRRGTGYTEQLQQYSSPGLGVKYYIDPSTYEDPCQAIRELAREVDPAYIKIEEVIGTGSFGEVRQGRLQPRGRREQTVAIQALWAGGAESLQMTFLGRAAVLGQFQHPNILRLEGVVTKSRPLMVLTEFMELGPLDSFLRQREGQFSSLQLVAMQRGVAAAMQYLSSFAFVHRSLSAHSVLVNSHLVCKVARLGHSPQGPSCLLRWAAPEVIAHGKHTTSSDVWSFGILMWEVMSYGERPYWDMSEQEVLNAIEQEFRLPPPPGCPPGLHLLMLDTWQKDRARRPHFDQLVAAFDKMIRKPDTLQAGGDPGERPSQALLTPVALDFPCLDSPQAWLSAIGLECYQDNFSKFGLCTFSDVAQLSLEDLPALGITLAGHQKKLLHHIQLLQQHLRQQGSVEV

[2] = target: T2, protein kinases (human kinome) (Homo sapiens, UniProt Q8TD19)
T2 sequence (Q8TD19 1-979): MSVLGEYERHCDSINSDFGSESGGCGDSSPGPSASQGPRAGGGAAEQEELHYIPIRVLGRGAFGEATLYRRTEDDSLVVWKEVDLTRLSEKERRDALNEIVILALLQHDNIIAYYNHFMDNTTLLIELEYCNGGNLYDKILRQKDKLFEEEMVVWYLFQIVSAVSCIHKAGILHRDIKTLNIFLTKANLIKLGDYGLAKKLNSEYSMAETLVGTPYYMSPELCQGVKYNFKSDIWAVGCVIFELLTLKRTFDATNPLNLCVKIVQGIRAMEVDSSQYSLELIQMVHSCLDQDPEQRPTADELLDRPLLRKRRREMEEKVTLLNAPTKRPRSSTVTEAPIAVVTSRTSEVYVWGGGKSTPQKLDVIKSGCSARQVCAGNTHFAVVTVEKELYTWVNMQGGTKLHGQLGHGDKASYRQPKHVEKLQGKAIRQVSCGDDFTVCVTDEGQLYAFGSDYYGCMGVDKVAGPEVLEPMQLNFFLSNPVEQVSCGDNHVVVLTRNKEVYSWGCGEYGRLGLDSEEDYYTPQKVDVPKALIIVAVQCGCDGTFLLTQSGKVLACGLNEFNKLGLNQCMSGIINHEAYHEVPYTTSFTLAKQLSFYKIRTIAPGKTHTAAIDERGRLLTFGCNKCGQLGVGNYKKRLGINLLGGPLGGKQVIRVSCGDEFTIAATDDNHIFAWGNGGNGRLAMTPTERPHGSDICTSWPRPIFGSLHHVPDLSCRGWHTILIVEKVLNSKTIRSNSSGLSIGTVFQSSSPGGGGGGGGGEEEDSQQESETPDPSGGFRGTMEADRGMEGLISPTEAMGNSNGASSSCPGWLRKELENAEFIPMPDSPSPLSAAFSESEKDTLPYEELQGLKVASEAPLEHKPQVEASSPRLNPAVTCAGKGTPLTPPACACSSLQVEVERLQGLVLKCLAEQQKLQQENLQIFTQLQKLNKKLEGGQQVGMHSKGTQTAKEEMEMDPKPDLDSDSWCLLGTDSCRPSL

[3] = target: protein kinases (human kinome) (Homo sapiens, UniProt Q7KZI7)
[4] = NEK9 (Q8TD19), experiment wp117, direction down
[5] = NEK9 (Q8TD19), experiment wp045, direction down

Sequence of protein kinases (human kinome) (Homo sapiens, UniProt Q7KZI7) (Q7KZI7 whole entry): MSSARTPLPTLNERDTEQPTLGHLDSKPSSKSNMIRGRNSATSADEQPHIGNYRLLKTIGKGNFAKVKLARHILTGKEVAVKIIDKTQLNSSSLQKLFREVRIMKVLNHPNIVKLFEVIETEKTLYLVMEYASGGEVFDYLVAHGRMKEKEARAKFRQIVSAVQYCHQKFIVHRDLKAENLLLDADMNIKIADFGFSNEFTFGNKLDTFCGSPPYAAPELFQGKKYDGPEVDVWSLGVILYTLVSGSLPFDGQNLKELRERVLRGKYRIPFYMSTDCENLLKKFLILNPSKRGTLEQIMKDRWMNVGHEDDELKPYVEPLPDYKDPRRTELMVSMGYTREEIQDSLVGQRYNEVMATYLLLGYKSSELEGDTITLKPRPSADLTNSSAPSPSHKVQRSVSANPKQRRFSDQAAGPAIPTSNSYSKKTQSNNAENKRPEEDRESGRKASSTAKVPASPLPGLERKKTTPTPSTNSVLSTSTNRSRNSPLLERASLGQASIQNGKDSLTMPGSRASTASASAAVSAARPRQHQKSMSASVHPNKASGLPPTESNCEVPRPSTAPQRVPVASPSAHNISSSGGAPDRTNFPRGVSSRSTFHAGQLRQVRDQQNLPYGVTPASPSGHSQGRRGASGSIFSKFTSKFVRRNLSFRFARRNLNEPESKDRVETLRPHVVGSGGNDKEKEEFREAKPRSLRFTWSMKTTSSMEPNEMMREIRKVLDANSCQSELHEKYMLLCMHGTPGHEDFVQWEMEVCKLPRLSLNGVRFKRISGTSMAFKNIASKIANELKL

`Cc1ccc(NC(=O)c2cccc(C(F)(F)F)c2)cc1N1Cc2cnc(Nc3ccc(N4CCN(CCCOc5cccc6c5C(=O)N(C5CCC(=O)NC5=O)C6=O)CC4)nc3)nc2N(C)C1=O` (stereo not shown) [DB0662] was tested, and the logFC ([1]; experiment wp168) was −0.736 and the “logFC of EPHB6 (O15197-1)” value ([1]; Experiment wp168) was −0.736.
`Cc1ccc(NC(=O)c2cccc(C(F)(F)F)c2)cc1N1Cc2cnc(Nc3ccc(N4CCN(Cc5cn(CCCCCOc6cccc7c6C(=O)N(C6CCC(=O)NC6=O)C7=O)nn5)CC4)nc3)nc2N(C)C1=O` (stereo not shown) [DB0646, N-(3-(7-((6-(4-((1-(5-((2-(2,6-Dioxopiperidin-3-yl)-1,3-dioxoisoindolin-4-yl)oxy)pentyl)-1H-1,2,3-triazol-4-yl)methyl)piperazin-1-v)pyridin-3-yl)amino)-1-methyl-2-oxo-1,4-dihydropyrimido[4,5-d]pyrimidin-3(2H)-yl)-4-methylphenyl)-3-(trifluoromethyl)benzamide] was tested, and the logFC ([1]; experiment wp160, 4 hr) was −0.3396, the logFC ([1]; experiment wp160, 8 hr) was −0.6548 and the “logFC of EPHB6 (O15197-1)” value ([1]; experiment wp160, 4 hr) was −0.3396. For the same compound, the “logFC of EPHB6 (O15197-1)” value ([1]; experiment wp160, 8 hr) was −0.6548.
With `Cc1cnc(Nc2ccc(N3CCN(CCCCCCC(=O)N[C@H](C(=O)N4C[C@H](O)C[C@H]4C(=O)N[C@@H](C)c4ccc(-c5scnc5C)cc4)C(C)(C)C)CC3)cc2)nc1Nc1cccc(S(=O)(=O)NC(C)(C)C)c1` [JWG.123] the logFC ([2]; NEK9 (Q8TD19), experiment wp195, direction down) was −1.079 and the logFC ([2]; NEK9 Q8TD19, experiment wp195) was −1.079.
`Cc1cc(Nc2ncc(Br)c(Nc3cccc(F)c3C(N)=O)n2)ccc1S(=O)(=O)NCCOCCOCCOCCOCCNc1cccc2c1C(=O)N(C1CCC(=O)NC1=O)C2=O` (stereo not shown) [TMX.02.174] was tested, and the logFC ([2]; NEK9 (Q8TD19), experiment wp146, direction down) was −0.3626 and the logFC ([2]; NEK9 Q8TD19, experiment wp146) was −0.3626.
With `Cn1c(=O)c(-c2c(Cl)cccc2Cl)cc2cnc(Nc3ccc(OCCNC(=O)CCCCCCNC(=O)COc4cccc5c4C(=O)N(C4CCC(=O)NC4=O)C5=O)cc3)nc21` (stereo not shown) [SB1.G.192.1] the logFC ([1]; experiment wp071) was −0.6259, the logFC ([1]; experiment wp131) was −0.5189 and the “logFC of EPHB6 (O15197-1)” value ([1]; experiment wp071) was −0.6259. For the same compound, the “logFC of EPHB6 (O15197-1)” value ([1]; experiment wp131) was −0.5189.
Compound `Cc1ncsc1-c1ccc([C@H](C)NC(=O)[C@@H]2C[C@@H](O)CN2C(=O)[C@@H](NC(=O)CCCCCN2CCc3cc(Nc4ncc(C5CC5)c(NCCCNC(=O)C5CCC5)n4)ccc3C2)C(C)(C)C)cc1` [BSJ.05.026] has a logFC ([3]; MARK2 (Q7KZI7-1), experiment wp195, direction down) of −1.239 and a logFC ([3]; MARK2 Q7KZI7-1, experiment wp195) of −1.239.
`Cc1ncsc1-c1ccc([C@H](C)NC(=O)[C@@H]2C[C@@H](O)CN2C(=O)[C@@H](NC(=O)CCCCCN2CCN(c3ccc(Nc4ncc5scc(-c6cccc(NS(C)(=O)=O)c6)c5n4)cc3)CC2)C(C)(C)C)cc1` [RSS0680, (2S,4R)-1-((S)-3,3-Dimethyl-2-(6-(4-(4-((7-(3-(methylsulfonamido)phenyl)thieno[3,2-d]pyrimidin-2-yl)amino)phenyl)piperazin-1-yl)hexanamido)butanoyl)-4-hydroxy-N—((S)-1-(4-(4-methylthiazol-5yl)phenyl)ethyl)pyrrolidine-2-carboxamide] was tested, and the logFC ([2]; NEK9 (Q8TD19), experiment wp080, direction down) was −1.277, the logFC [2, 4] was −1.483 and the logFC ([2]; NEK9 Q8TD19, experiment wp080) was −1.277. For the same compound, the logFC ([2]; NEK9 Q8TD19, experiment wp117) was −1.483, the logFC ([3]; MARK2 (Q7KZI7-1), experiment wp117, direction down) was −0.4286 and the logFC ([3]; MARK2 Q7KZI7-1, experiment wp117) was −0.4286.
`CS(=O)(=O)Nc1cccc(-c2csc3cnc(Nc4ccc(N5CCN(CCOCCOCCOc6cccc7c6C(=O)N(C6CCC(=O)NC6=O)C7=O)CC5)cc4)nc23)c1` (stereo not shown) [RSS0628] gave a logFC [2, 5] of −2.438 and a logFC ([2]; NEK9 Q8TD19, experiment wp045) of −2.438.
With `CS(=O)(=O)Nc1cccc(-c2csc3cnc(Nc4ccc(N5CCN(CCCCCOc6cccc7c6C(=O)N(C6CCC(=O)NC6=O)C7=O)CC5)cc4)nc23)c1` (stereo not shown) [DB0614, N-(3-(2-((4-(4-(5-((2-(2,6-Dioxopiperidin-3-yl)-1,3-dioxoisoindolin-4-yl)oxy)pentyl)piperazin-1-yl)phenyl)amino)thieno[3,2-d]pyrimidin-7-yl)phenyl)methanesulfonamide] the logFC [2, 5] was −2.74, the logFC [2, 4] was −3.006 and the logFC ([2]; NEK9 Q8TD19, experiment wp045) was −2.74. The logFC ([2]; NEK9 Q8TD19, experiment wp117) was −3.006.
`CC(C)S(=O)(=O)c1ccccc1Nc1nc(Nc2ccc(N3CCN(CCOCCNC(=O)CNc4cccc5c4C(=O)N(C4CCC(=O)NC4=O)C5=O)CC3)cc2)ncc1Cl` (stereo not shown) [SK.3.91] gave a logFC ([3]; MARK2 (Q7KZI7-1), experiment wp107, direction down) of −0.5266, a logFC ([3]; MARK2 (Q7KZI7-1), experiment wp172, direction down) of −0.6351 and a logFC ([3]; MARK2 Q7KZI7-1, experiment wp107) of −0.5266. The logFC ([3]; MARK2 Q7KZI7-1, experiment wp172) was −0.6351.
In the case of `O=C(COc1cccc2c1C(=O)N(C1CCC(=O)NC1=O)C2=O)NCCCCCCCN1CCc2cc(Nc3ncc(C4CC4)c(NCCCNC(=O)C4CCC4)n3)ccc2C1` (stereo not shown) [BSJ.04.178], the logFC ([3]; MARK2 (Q7KZI7-1), experiment wp134, direction down) was −0.9686 and the logFC ([3]; MARK2 Q7KZI7-1, experiment wp134) was −0.9686.
